Reference: PubChem BioAssay AID330 (DTP/NCI, 2004)
Values joined by “and” are separate entries in the source; they are usually repeats but may differ in a detail not shown here. Equal values may be shown once. Inconclusive results and toxic doses are left out. How the source made its calls: active means survival T/C of 150% or more; inactive means T/C below 125% in these data.

Tested on: P388 leukemia ip, CD2F1 mice, survival T/C
Assay: NCI In Vivo Anticancer Drug Screen. Data for tumor model P388 Leukemia (intraperitoneal) in CD2F1 (CDF1) mice
Conditions: endpoint: median survival time, higher = longer survival
How it was run: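 Mice carrying the transplanted tumor received test compound or vehicle. Survival was recorded in each group, and the value is the treated-group measurement divided by that of the vehicle-treated control group.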

[1] = dose: 25.0 mg/kg/injection, schedule: Q01DX005 (ip), vehicle: saline with Tween-80
[2] = dose: 60.0 mg/kg/injection, schedule: Q01DX005 (ip), vehicle: saline with Tween-80
[3] = dose: 120.0 mg/kg/injection, schedule: Q01DX005 (ip), vehicle: saline with Tween-80
[4] = dose: 240.0 mg/kg/injection, schedule: Q01DX005 (ip), vehicle: saline with Tween-80
[5] = dose: 50.0 mg/kg/injection, schedule: Q01DX009 (ip), vehicle: saline with Tween-80
[6] = dose: 100.0 mg/kg/injection, schedule: Q01DX009 (ip), vehicle: saline with Tween-80
[7] = dose: 25.0 mg/kg/injection, schedule: Q01DX009 (ip), vehicle: saline with Tween-80
[8] = dose: 50.0 mg/kg/injection, schedule: Q01DX005 (ip), vehicle: Klucel (hydroxypropylcellulose) (HPC)
[9] = dose: 100.0 mg/kg/injection, schedule: Q01DX005 (ip), vehicle: Klucel (hydroxypropylcellulose) (HPC)
[10] = dose: 200.0 mg/kg/injection, schedule: Q01DX005 (ip), vehicle: Klucel (hydroxypropylcellulose) (HPC)
[11] = dose: 50.0 mg/kg/injection, schedule: Q01DX009 (ip), vehicle: Klucel (hydroxypropylcellulose) (HPC)
[12] = dose: 100.0 mg/kg/injection, schedule: Q01DX009 (ip), vehicle: Klucel (hydroxypropylcellulose) (HPC)

Measured: T/C

C/C(=N\NC(=S)N1CCCC1)c1cnccn1
inactive: dose: 6.25 mg/kg/injection, schedule: Q01DX005 (ip), vehicle: saline with Tween-80 100 % of control | dose: 12.5 mg/kg/injection, schedule: Q01DX005 (ip), vehicle: saline with Tween-80 103 % of control | [1] 100 % of control

Cn1c(=O)[nH]cc(F)c1=O
inactive: dose: 10.0 mg/kg/injection, schedule: Q01DX009 (ip), vehicle: saline 104 % of control | dose: 20.0 mg/kg/injection, schedule: Q01DX009 (ip), vehicle: saline 100 % of control | dose: 40.0 mg/kg/injection, schedule: Q01DX009 (ip), vehicle: saline 98 % of control

Cc1ccc(C(=O)CSC2=NCCN2)cc1Cl
inactive: [2] 106 % of control | [3] 100 % of control | [4] 97 % of control

O=C(Nc1ccc(Cl)cc1)Nc1nnc2nc(CC(=O)c3ccccc3)c(=O)[nH]n12
inactive: [2] 98 % of control | [3] 99 % of control | [4] 91 % of control

O=C1OCCOCCSCCOCCOC(=O)c2cncc1c2
inactive: dose: 100.0 mg/kg/injection, schedule: Q01DX001 (ip), vehicle: Klucel (hydroxypropylcellulose) (HPC) 104 % of control | dose: 200.0 mg/kg/injection, schedule: Q01DX001 (ip), vehicle: Klucel (hydroxypropylcellulose) (HPC) 104 % of control | dose: 400.0 mg/kg/injection, schedule: Q01DX001 (ip), vehicle: Klucel (hydroxypropylcellulose) (HPC) 101 % of control

CC(=O)Nc1ccc(/C=C/c2ccc(N=C=S)cc2S(=O)(=O)O)c(S(=O)(=O)O)c1
inactive: [5] 110 % of control | [6] 110 % of control

O=[N+]([O-])c1ccc(Sc2c3ccccc3nc3ccccc23)cn1
inactive: [1] 104 % of control | dose: 50.0 mg/kg/injection, schedule: Q01DX005 (ip), vehicle: saline with Tween-80 109 % of control | dose: 100.0 mg/kg/injection, schedule: Q01DX005 (ip), vehicle: saline with Tween-80 104 % of control | dose: 200.0 mg/kg/injection, schedule: Q01DX005 (ip), vehicle: saline with Tween-80 101 % of control

C/C(=N\N=C(/[Se])N1CC2CCC(CC2)C1)c1ccccn1
inactive: dose: 1.56 mg/kg/injection, schedule: Q01DX009 (ip), vehicle: Klucel (hydroxypropylcellulose) (HPC) 100 % of control | dose: 3.12 mg/kg/injection, schedule: Q01DX009 (ip), vehicle: Klucel (hydroxypropylcellulose) (HPC) 124 % of control | dose: 12.5 mg/kg/injection, schedule: Q01DX009 (ip), vehicle: Klucel (hydroxypropylcellulose) (HPC) 98 % of control and 97 % of control

C=CCNC(=S)Nc1ccc(OC(=O)Nc2ccc(Cl)c(Cl)c2)cc1
inactive: dose: 6.25 mg/kg/injection, schedule: Q01DX009 (ip), vehicle: saline with Tween-80 102 % of control | dose: 12.5 mg/kg/injection, schedule: Q01DX009 (ip), vehicle: saline with Tween-80 96 % of control | [7] 104 % of control | [5] 98 % of control

C1=CN2C(c3ccccc3)=NN(c3ccccc3)[C@@H]2c2ccccc21
inactive: dose: 1.87 mg/kg/injection, schedule: Q01DX005 (ip), vehicle: saline with Tween-80 102 % of control | dose: 3.75 mg/kg/injection, schedule: Q01DX005 (ip), vehicle: saline with Tween-80 102 % of control | dose: 7.5 mg/kg/injection, schedule: Q01DX005 (ip), vehicle: saline with Tween-80 103 % of control and 93 % of control

CNc1nc2c(C)ccc3[nH]c(N(C)C)nc3c-2n1
inactive: dose: 25.0 mg/kg/injection, schedule: Q01DX005 (ip), vehicle: Klucel (hydroxypropylcellulose) (HPC) 100 % of control | [8] 99 % of control | [9] 91 % of control

O=c1c2ccccc2c(=O)c2c1cc(Cl)c1[nH]c3c([nH]c12)c(Cl)cc1c(=O)c2ccccc2c(=O)c13
inactive: [8] 97 % of control | [9] 96 % of control | [10] 94 % of control

COC(=O)C(C(C)=O)C(=O)c1cc([N+](=O)[O-])cc([N+](=O)[O-])c1 (stereo not drawn)
inactive: dose: 100.0 mg/kg/injection, schedule: Q04DX002 (ip), vehicle: Klucel (hydroxypropylcellulose) (HPC) 98 % of control | dose: 200.0 mg/kg/injection, schedule: Q04DX002 (ip), vehicle: Klucel (hydroxypropylcellulose) (HPC) 100 % of control | dose: 400.0 mg/kg/injection, schedule: Q04DX002 (ip), vehicle: Klucel (hydroxypropylcellulose) (HPC) 97 % of control

O=C1C(c2ccccc2)=c2c(c3ccccc3c3ccccc23)=C1c1ccccc1
inactive: [8] 99 % of control | dose: 50.0 mg/kg/injection, schedule: Q01DX005 (ip), vehicle: Klucel + Tween-80 89 % of control and 95 % of control | [9] 98 % of control | dose: 100.0 mg/kg/injection, schedule: Q01DX005 (ip), vehicle: Klucel + Tween-80 89 % of control and 104 % of control | [10] 95 % of control | dose: 200.0 mg/kg/injection, schedule: Q01DX005 (ip), vehicle: Klucel + Tween-80 106 % of control

CCn1c2ccccc2c2ccc(N=Nc3ccc(N(C)C)cc3)cc21
inactive: [5] 111 % of control and 112 % of control and 113 % of control | [6] 108 % of control and 118 % of control

CC(C)CC(NC(=O)C(CS)NC(=O)CN1C(=O)CCC1=O)C(N)=O (stereo not drawn)
inactive: [8] 105 % of control | [9] 100 % of control | [10] 101 % of control

COc1ccc(OC)c2c1C(=O)C=CC2=O
inactive: dose: 1.56 mg/kg/injection, schedule: Q01DX001 (ip), vehicle: saline 108 % of control | dose: 3.13 mg/kg/injection, schedule: Q01DX001 (ip), vehicle: saline 110 % of control | dose: 6.25 mg/kg/injection, schedule: Q01DX001 (ip), vehicle: saline 108 % of control

CN(C)CCN(C)CCc1ccccn1
inactive: dose: 100.0 mg/kg/injection, schedule: Q01DX001 (ip), vehicle: saline 109 % of control | dose: 200.0 mg/kg/injection, schedule: Q01DX001 (ip), vehicle: saline 102 % of control | dose: 400.0 mg/kg/injection, schedule: Q01DX001 (ip), vehicle: saline 105 % of control

Nc1cc(Cl)cc2c1-c1ccc(Cl)cc1C2
inactive: [8] 93 % of control | [9] 93 % of control | [10] 94 % of control

CCOc1ccc(C[Se][Se]Cc2ccc(OCC)cc2)cc1
inactive: [11] 109 % of control | [12] 91 % of control

COC1=CCC2=C(CC[C@H]3[C@H]2CCP3(C)=S)C1 (stereo partly drawn)
inactive: dose: 50.0 mg/kg/injection, schedule: Q01DX005 (ip), vehicle: saline + Tween-80 + alcohol 115 % of control | dose: 100.0 mg/kg/injection, schedule: Q01DX005 (ip), vehicle: saline + Tween-80 + alcohol 106 % of control | dose: 200.0 mg/kg/injection, schedule: Q01DX005 (ip), vehicle: saline + Tween-80 + alcohol 101 % of control

CCCCCCN=C(N)N/N=C(\C)c1ccc2c(c1)Cc1ccccc1-2
inactive: dose: 12.5 mg/kg/injection, schedule: Q04DX002 (ip), vehicle: saline with Tween-80 107 % of control | dose: 25.0 mg/kg/injection, schedule: Q04DX002 (ip), vehicle: saline with Tween-80 100 % of control | dose: 50.0 mg/kg/injection, schedule: Q04DX002 (ip), vehicle: saline with Tween-80 92 % of control | dose: 100.0 mg/kg/injection, schedule: Q04DX002 (ip), vehicle: saline with Tween-80 116 % of control

CC(C)(c1ccc(OCC2CO2)cc1)c1ccc(OCC2CO2)cc1 (stereo not drawn)
inactive: [7] 103 % of control | [5] 103 % of control and 107 % of control | [6] 103 % of control | dose: 200.0 mg/kg/injection, schedule: Q01DX009 (ip), vehicle: saline with Tween-80 109 % of control | dose: 400.0 mg/kg/injection, schedule: Q01DX009 (ip), vehicle: saline with Tween-80 114 % of control

C1CC2(CC3(C1)SCCS3)SCCS2
inactive: [11] 94 % of control | [12] 101 % of control | dose: 200.0 mg/kg/injection, schedule: Q01DX009 (ip), vehicle: Klucel (hydroxypropylcellulose) (HPC) 101 % of control

COc1ccc(I)c(C=NC2CCCCC2)c1C
inactive: dose: 50.0 mg/kg/injection, schedule: Q01DX005 (ip), vehicle: distilled water + Tween-80 + alcohol 98 % of control | dose: 100.0 mg/kg/injection, schedule: Q01DX005 (ip), vehicle: distilled water + Tween-80 + alcohol 97 % of control | dose: 200.0 mg/kg/injection, schedule: Q01DX005 (ip), vehicle: distilled water + Tween-80 + alcohol 98 % of control

NC(=S)n1nc(-c2ccccc2)c(N=Nc2cccc(Cl)c2Cl)c1-c1ccccc1
inactive: dose: 100.0 mg/kg/injection, schedule: Q01DX001 (ip), vehicle: saline with Tween-80 89 % of control | dose: 200.0 mg/kg/injection, schedule: Q01DX001 (ip), vehicle: saline with Tween-80 94 % of control | dose: 400.0 mg/kg/injection, schedule: Q01DX001 (ip), vehicle: saline with Tween-80 97 % of control
